According to US9682995B2, “Amino-substituted isothiazoles” (BAYER PHARMA AKTIENGESELLSCHAFT, priority 2013, dated 2017):

What was measured:
Experiment in all cases: Kinase Profiling (KINOMEscan)
Assay type in all cases: binding
[1] = molecular target: 456 kinases (of these 395 non-mutant kinases) (Homo sapiens, UniProt O15075); conditions: DCAMKL1; 10 μM
[2] = molecular target: 456 kinases (of these 395 non-mutant kinases) (Homo sapiens, UniProt O15111); conditions: IKK-alpha; 10 μM
[3] = molecular target: 456 kinases (of these 395 non-mutant kinases) (Homo sapiens, UniProt O60674); conditions: JAK2(JH1domain-catalytic); 10 μM
[4] = molecular target: 456 kinases (of these 395 non-mutant kinases) (Homo sapiens, UniProt O96013); conditions: PAK4; 10 μM
[5] = molecular target: 456 kinases (of these 395 non-mutant kinases) (Homo sapiens, UniProt P04049); conditions: RAF1; 10 μM
[6] = molecular target: 456 kinases (of these 395 non-mutant kinases) (Homo sapiens, UniProt P10721, A829P); conditions: KIT(A829P); 10 μM
456 kinases (of these 395 non-mutant kinases) (Homo sapiens, UniProt P10721, A829P), sequence (P10721 26-976 A829P limits assumed): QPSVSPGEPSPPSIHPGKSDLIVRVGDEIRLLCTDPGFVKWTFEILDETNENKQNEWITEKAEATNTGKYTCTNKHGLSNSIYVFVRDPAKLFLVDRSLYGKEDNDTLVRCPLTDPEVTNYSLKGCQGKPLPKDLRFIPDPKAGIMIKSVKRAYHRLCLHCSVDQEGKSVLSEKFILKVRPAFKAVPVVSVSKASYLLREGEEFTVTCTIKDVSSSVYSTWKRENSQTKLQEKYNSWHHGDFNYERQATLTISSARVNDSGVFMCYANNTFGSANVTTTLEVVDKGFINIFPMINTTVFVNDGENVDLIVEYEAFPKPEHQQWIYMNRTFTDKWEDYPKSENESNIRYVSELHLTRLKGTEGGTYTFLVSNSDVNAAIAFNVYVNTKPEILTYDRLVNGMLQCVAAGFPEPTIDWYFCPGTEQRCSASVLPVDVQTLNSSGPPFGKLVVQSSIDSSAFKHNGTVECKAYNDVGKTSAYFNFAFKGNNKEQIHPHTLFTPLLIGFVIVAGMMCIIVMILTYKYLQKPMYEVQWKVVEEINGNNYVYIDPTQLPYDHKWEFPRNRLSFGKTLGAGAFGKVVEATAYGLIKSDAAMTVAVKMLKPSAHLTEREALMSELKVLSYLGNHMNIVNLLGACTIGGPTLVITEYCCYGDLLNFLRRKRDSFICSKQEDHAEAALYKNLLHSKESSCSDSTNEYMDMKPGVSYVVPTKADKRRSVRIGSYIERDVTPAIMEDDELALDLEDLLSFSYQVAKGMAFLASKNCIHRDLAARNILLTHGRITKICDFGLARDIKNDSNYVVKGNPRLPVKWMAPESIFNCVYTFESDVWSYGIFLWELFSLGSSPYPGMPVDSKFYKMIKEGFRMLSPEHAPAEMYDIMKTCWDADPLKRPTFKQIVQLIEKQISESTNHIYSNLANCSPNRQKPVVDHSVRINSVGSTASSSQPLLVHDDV

[7] = molecular target: 456 kinases (of these 395 non-mutant kinases) (Homo sapiens, UniProt P10721, V559D/V654A); conditions: KIT(V559D,V654A); 10 μM
456 kinases (of these 395 non-mutant kinases) (Homo sapiens, UniProt P10721, V559D/V654A), sequence (P10721 26-976 V559D/V654A limits assumed): as the sequence (P10721 26-976 A829P limits assumed) above, with V534D, V629A, P804A counted along it

[8] = molecular target: 456 kinases (of these 395 non-mutant kinases) (Homo sapiens, UniProt P22455); conditions: FGFR4; 10 μM
[9] = molecular target: 456 kinases (of these 395 non-mutant kinases) (Homo sapiens, UniProt P22607); conditions: FGFR3; 10 μM
[10] = molecular target: 456 kinases (of these 395 non-mutant kinases) (Homo sapiens, UniProt P42684); conditions: ABL2; 10 μM
456 kinases (of these 395 non-mutant kinases) (Homo sapiens, UniProt P42684), sequence (P42684 2-1182 limits assumed, change not shown): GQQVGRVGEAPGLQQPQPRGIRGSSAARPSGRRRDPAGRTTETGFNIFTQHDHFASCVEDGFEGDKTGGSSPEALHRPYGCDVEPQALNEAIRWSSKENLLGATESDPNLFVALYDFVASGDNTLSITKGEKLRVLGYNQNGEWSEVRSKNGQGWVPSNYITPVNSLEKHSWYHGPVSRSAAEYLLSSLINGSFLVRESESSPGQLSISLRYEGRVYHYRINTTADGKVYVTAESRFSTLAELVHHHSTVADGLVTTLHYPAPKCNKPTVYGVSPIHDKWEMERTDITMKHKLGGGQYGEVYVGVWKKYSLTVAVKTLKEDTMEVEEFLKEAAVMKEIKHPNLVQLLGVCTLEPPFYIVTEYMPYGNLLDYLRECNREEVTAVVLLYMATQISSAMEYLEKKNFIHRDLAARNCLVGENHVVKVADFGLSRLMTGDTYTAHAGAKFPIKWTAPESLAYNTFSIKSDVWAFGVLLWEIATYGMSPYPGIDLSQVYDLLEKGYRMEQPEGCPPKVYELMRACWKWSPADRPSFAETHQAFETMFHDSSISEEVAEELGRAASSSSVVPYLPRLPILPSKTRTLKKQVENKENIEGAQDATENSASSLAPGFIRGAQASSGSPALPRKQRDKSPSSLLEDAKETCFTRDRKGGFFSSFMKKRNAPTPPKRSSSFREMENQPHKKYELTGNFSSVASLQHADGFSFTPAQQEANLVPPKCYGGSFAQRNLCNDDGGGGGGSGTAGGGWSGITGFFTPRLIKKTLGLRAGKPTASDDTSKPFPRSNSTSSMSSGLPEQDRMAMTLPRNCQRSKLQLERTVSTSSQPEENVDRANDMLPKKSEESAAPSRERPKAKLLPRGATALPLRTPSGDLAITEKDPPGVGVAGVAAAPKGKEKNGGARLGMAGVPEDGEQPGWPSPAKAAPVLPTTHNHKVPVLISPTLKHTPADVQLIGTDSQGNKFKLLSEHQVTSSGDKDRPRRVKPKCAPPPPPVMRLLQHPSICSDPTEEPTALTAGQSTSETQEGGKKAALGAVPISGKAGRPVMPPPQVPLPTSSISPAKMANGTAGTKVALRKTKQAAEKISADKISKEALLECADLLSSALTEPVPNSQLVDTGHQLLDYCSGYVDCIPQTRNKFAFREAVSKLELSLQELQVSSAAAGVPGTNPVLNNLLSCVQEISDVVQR

[11] = molecular target: 456 kinases (of these 395 non-mutant kinases) (Homo sapiens, UniProt P51956); conditions: NEK3; 10 μM
[12] = molecular target: 456 kinases (of these 395 non-mutant kinases) (Homo sapiens, UniProt Q07912); conditions: TNK2; 10 μM
[13] = molecular target: 456 kinases (of these 395 non-mutant kinases) (Homo sapiens, UniProt Q12866); conditions: MERTK; 10 μM
456 kinases (of these 395 non-mutant kinases) (Homo sapiens, UniProt Q12866), sequence (Q12866 21-999 limits assumed, change not shown): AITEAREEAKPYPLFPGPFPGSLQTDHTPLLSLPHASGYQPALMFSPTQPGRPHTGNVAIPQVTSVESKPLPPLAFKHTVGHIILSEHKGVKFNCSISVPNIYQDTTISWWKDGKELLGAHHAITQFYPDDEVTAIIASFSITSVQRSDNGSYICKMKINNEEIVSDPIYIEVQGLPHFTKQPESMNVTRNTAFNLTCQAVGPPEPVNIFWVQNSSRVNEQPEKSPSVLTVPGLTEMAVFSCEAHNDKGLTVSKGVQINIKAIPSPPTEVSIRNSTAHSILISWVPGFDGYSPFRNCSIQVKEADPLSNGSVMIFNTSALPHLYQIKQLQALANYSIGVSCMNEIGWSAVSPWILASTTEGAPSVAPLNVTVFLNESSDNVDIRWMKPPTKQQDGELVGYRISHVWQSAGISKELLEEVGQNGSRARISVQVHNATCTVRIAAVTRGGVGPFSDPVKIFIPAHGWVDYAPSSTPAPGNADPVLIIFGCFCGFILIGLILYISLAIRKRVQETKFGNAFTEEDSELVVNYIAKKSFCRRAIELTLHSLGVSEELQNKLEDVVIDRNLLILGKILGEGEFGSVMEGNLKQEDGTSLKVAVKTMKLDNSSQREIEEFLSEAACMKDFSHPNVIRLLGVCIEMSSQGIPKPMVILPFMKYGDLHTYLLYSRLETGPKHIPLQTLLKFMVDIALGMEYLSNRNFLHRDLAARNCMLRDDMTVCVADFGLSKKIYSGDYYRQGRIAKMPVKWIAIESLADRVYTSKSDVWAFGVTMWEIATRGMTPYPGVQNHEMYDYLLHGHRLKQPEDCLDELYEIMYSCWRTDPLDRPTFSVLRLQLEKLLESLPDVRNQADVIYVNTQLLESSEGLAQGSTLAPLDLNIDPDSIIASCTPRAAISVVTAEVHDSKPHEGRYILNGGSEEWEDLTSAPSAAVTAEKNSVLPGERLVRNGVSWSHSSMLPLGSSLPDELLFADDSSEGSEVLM

[14] = molecular target: 456 kinases (of these 395 non-mutant kinases) (Homo sapiens, UniProt Q13233); conditions: MAP3K1; 10 μM
[15] = molecular target: 456 kinases (of these 395 non-mutant kinases) (Homo sapiens, UniProt Q13470); conditions: TNK1; 10 μM
[16] = molecular target: 456 kinases (of these 395 non-mutant kinases) (Homo sapiens, UniProt Q13546); conditions: RIPK1; 10 μM
[17] = molecular target: 456 kinases (of these 395 non-mutant kinases) (Homo sapiens, UniProt Q13976); conditions: PRKG1; 10 μM
[18] = molecular target: 456 kinases (of these 395 non-mutant kinases) (Homo sapiens, UniProt Q16816); conditions: PHKG1; 10 μM
[19] = molecular target: 456 kinases (of these 395 non-mutant kinases) (Homo sapiens, UniProt Q7L7X3); conditions: TAOK1; 10 μM
[20] = molecular target: 456 kinases (of these 395 non-mutant kinases) (Homo sapiens, UniProt Q86Y07); conditions: VRK2; 10 μM
[21] = molecular target: 456 kinases (of these 395 non-mutant kinases) (Homo sapiens, UniProt Q8TDX7); conditions: NEK7; 10 μM
[22] = molecular target: 456 kinases (of these 395 non-mutant kinases) (Homo sapiens, UniProt Q92918); conditions: HPK1; 10 μM
[23] = molecular target: 456 kinases (of these 395 non-mutant kinases) (Homo sapiens, UniProt Q96L34); conditions: MARK4; 10 μM
[24] = molecular target: 456 kinases (of these 395 non-mutant kinases) (Homo sapiens, UniProt Q96RR4); conditions: CAMKK2; 10 μM
[25] = molecular target: 456 kinases (of these 395 non-mutant kinases) (Homo sapiens, UniProt Q9H4A3); conditions: WNK1; 10 μM
[26] = molecular target: 456 kinases (of these 395 non-mutant kinases) (Homo sapiens, UniProt Q9HBY8); conditions: SGK2; 10 μM
[27] = molecular target: 456 kinases (of these 395 non-mutant kinases) (Homo sapiens, UniProt Q9NRH2); conditions: SNRK; 10 μM
[28] = molecular target: 456 kinases (of these 395 non-mutant kinases) (Homo sapiens, UniProt Q9P286); conditions: PAK7; 10 μM
[29] = molecular target: 456 kinases (of these 395 non-mutant kinases) (Homo sapiens, UniProt Q9UM73); conditions: ALK; 10 μM
456 kinases (of these 395 non-mutant kinases) (Homo sapiens, UniProt Q9UM73), sequence (Q9UM73 19-1620 limits assumed, stated change not applied): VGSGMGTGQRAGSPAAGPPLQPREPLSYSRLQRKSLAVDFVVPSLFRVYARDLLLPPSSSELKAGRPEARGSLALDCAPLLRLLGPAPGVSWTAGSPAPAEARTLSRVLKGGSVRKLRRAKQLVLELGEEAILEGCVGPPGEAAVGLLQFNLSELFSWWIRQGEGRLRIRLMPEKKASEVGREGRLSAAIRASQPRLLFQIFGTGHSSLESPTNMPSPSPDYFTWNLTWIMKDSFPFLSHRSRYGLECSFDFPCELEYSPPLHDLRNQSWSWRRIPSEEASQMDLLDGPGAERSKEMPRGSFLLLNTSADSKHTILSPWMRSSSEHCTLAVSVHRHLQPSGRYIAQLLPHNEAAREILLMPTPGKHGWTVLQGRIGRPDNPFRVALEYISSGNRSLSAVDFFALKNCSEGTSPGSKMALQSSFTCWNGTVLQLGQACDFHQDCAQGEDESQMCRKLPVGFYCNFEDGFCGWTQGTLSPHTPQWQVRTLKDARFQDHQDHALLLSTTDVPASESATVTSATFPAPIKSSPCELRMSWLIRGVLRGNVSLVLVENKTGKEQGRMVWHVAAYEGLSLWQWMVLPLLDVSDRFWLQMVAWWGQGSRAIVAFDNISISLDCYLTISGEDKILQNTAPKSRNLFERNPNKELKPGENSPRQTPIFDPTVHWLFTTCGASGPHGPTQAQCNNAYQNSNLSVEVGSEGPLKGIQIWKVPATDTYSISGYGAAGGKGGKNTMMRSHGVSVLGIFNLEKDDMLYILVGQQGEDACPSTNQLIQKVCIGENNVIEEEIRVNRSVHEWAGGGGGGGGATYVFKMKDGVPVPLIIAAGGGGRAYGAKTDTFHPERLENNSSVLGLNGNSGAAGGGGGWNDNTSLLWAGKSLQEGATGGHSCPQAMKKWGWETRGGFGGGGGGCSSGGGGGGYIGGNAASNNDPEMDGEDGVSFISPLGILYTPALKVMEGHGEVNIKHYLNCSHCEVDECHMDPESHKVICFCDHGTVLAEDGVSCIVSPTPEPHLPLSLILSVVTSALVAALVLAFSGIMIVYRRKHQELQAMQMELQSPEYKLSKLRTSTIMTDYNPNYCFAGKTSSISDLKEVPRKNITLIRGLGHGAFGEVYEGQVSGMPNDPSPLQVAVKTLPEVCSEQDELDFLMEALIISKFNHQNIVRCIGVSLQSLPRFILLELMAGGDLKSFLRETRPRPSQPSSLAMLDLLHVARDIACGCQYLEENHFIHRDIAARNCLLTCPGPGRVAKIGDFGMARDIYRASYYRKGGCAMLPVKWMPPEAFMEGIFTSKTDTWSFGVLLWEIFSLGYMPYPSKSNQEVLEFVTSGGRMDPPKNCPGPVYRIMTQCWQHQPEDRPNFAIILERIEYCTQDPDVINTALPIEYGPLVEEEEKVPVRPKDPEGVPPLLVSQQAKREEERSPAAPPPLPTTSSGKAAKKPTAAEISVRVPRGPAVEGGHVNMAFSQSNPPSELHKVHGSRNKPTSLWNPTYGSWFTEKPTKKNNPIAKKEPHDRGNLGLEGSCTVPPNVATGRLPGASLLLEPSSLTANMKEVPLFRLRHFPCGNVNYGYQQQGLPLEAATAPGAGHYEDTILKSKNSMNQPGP

[30] = molecular target: 456 kinases (of these 395 non-mutant kinases) (Homo sapiens, UniProt Q9UM73, L1196M); conditions: ALK(L1196M); 10 μM
456 kinases (of these 395 non-mutant kinases) (Homo sapiens, UniProt Q9UM73, L1196M), sequence (Q9UM73 19-1620 L1196M limits assumed): as the sequence (Q9UM73 19-1620 limits assumed, stated change not applied) above, with L1178M counted along it

[31] = molecular target: 456 kinases (of these 395 non-mutant kinases) (Homo sapiens, UniProt Q9Y616); conditions: IRAK3; 10 μM
[32] = tested on: 456 kinases (of these 395 non-mutant kinases); conditions: 10 μM

## CCc1ccccc1NC(=O)c1c(C)nsc1Nc1cnc2cc(F)ccc2n1 [Example 20, N-(2-Ethylphenyl)-5-[(6-fluoroquinoxalin-2-yl)amino]-3-methyl-1,2-thiazole-4-carboxamide]
[1]
  % Ctrl @ 10 μM: 92 % Ctrl
[2]
  % Ctrl @ 10 μM: 84 % Ctrl
[3]
  % Ctrl @ 10 μM: 100 % Ctrl
[4]
  % Ctrl @ 10 μM: 100 % Ctrl
[5]
  % Ctrl @ 10 μM: 100 % Ctrl
[6]
  % Ctrl @ 10 μM: 94 % Ctrl
[7]
  % Ctrl @ 10 μM: 96 % Ctrl
[8]
  % Ctrl @ 10 μM: 77 % Ctrl
[9]
  % Ctrl @ 10 μM: 85 % Ctrl
[10]
  % Ctrl @ 10 μM: 100 % Ctrl
[11]
  % Ctrl @ 10 μM: 97 % Ctrl
[12]
  % Ctrl @ 10 μM: 93 % Ctrl
[13]
  % Ctrl @ 10 μM: 98 % Ctrl
[14]
  % Ctrl @ 10 μM: 84 % Ctrl
[15]
  % Ctrl @ 10 μM: 86 % Ctrl
[16]
  % Ctrl @ 10 μM: 99 % Ctrl
[17]
  % Ctrl @ 10 μM: 90 % Ctrl
[18]
  % Ctrl @ 10 μM: 70 % Ctrl
[19]
  % Ctrl @ 10 μM: 100 % Ctrl
[20]
  % Ctrl @ 10 μM: 100 % Ctrl
[21]
  % Ctrl @ 10 μM: 79 % Ctrl
[22]
  % Ctrl @ 10 μM: 60 % Ctrl
[23]
  % Ctrl @ 10 μM: 100 % Ctrl
[24]
  % Ctrl @ 10 μM: 74 % Ctrl
[25]
  % Ctrl @ 10 μM: 100 % Ctrl
[26]
  % Ctrl @ 10 μM: 100 % Ctrl
[27]
  % Ctrl @ 10 μM: 100 % Ctrl
[28]
  % Ctrl @ 10 μM: 94 % Ctrl
[29]
  % Ctrl @ 10 μM: 77 % Ctrl
[30]
  % Ctrl @ 10 μM: 100 % Ctrl
[31]
  % Ctrl @ 10 μM: 100 % Ctrl
[32]; EGFR(L747-E749del, A750P)
  % Ctrl @ 10 μM: 94 % Ctrl
[32]; EGFR(L747-S752del, P753S)
  % Ctrl @ 10 μM: 100 % Ctrl
[32]; EGFR(L747-T751del,Sins)
  % Ctrl @ 10 μM: 100 % Ctrl
[32]; FLT3(ITD)
  % Ctrl @ 10 μM: 67 % Ctrl
